Data taken from PMC11359531, “Establishment of Dissolution Test Method for Multi-Components in Traditional Chinese Medicine Preparations Based on In Vitro–In Vivo Correlation” (Pharmaceuticals, 2024).
≈ marks a conversion by molar mass, not a printed value. Where “and” joins values, the source holds several entries; their conditions need not be identical. Identical values can stand only once. Like-named read-outs stand apart in the source and are kept apart here.

Experiments:
[1] = Caco-2 transport assay (Peff); conditions: human
[2] = Stability of Q-markers in plasma; set-up: species or system dog; conditions: n = 6
Procedure: The standard solutions of tetrahydropalmatine, corydaline, protopin, α-allocryptopine, and byakangelicin were prepared by dissolving them in acetonitrile to obtain a mixed standard stock solution, which was further diluted with acetonitrile to prepare a series of different concentration gradient mixed standard solutions. An internal standard solution of 25 ng/mL was prepared from betamethasone solution (500 μg/mL) diluted with acetonitrile. Blank dog blood was collected through intravenous blood sampling, and plasma was obtained by centrifugation. To prepare the standard plasma sample, 25 μL of the mixed standard solution was added to 100 μL of blank plasma, and 400 μL of acetonitrile was added and vortexed for protein precipitation. The supernatant was acquired by centrifugation and blown dry with nitrogen. Then, 100 μL of acetonitrile was added to the dried supernatant, and the resulting solution was mixed to gain the standard plasma sample. Different mixed standard solution including a serial of concentrations of tetrahydropalmatine: 0.625–25 ng/mL, corydaline: 0.625–25 ng/mL, protopin: 0.1–4 ng/mL, α-allocryptopine: 0.1–4 ng/mL, byakangelicin: 18.75–750 ng/mL were applied to prepare standard plasma sample and quality control (QC) samples of plasma as follows: 1.25, 5, and 20 ng/mL for tetrahydropalmatine and corydaline, […], and 37.5, 150, and 600 ng/mL for byakangelicin.

[3] = Solubility of Q-markers in dissolution media, dose number D0; conditions: for solubility at 24 h: thermodynamic from solid
Procedure: The solubility of the compounds was determined at physiologically relevant pH values (0.1 M of HCl, pH 1.2; acetate buffer, pH 4.5; and phosphate buffer, pH 6.8) as those in dissolution medium, by adding excess compounds to specific medium, vortexing for 30 s, and shaking for 24 h at 37 °C and 120 rpm using a constant temperature shaker. The supernatant was then diluted with an appropriate amount of methanol, and the concentration of each compound was determined using the HPLC method described in Section 3.2. The solubility was evaluated using the dose (D0) values [48], which describe the relationship between solubility and maximum dose strength according to Equation (1). […] (1) D0=M0/V0/CS
M0 was the highest dose of each component under single administration, it should be noted that since there is no sense of the maximum oral dose for the ingredients in herbal preparation, the content of each component in a single dose of the preparation is taken as the maximum administered dose.

[4] = External validation of IVIVC model with another brand of YZTs; conditions: beagle, dog, blood, po
Source text: (§1) In order to further apply the identified in vivo correlated dissolution conditions to different batches of YZTs, another brand of YZTs was selected for external validation of the dissolution conditions and IVIVC model results. The dissolution data of different brands in the identified media were input into the established IVIVC model to obtain the predicted blood concentration–time curve and to compare the PE% between the predicted value and the actual value.

[5] = dog, in vivo
Source text: The Phoenix WinNonlin IVIVC tool was utilized to evaluate the relationship between in vivo drug dissolution rate and blood drug concentration, which utilizes the Unit Impulse Response (UIR) function for this purpose. By using intravenous administration as the input for the unit impulse response, the influence of drug absorption can be eliminated. The obtained UIR function will be utilized for the deconvolution of pharmacokinetic data to obtain the curve of cumulative drug absorption over time [50]. (8) Y(t)=A×exp[Alpha×(t×Ka−tlag)] in which Y(t) is unit impulse response, A is the coefficient value, Alpha is the exponential value, Ka is the absorption rate constant, tlag is the lag time.

[6] = dog, in vivo; remark: listed apart in the source
Source text: as §1

[7] = 0.1 M HCl, 37 °C, pH 1.2, simulated gastric fluid
[8] = acetate buffer, 37 °C, pH 4.5, aqueous buffer
[9] = phosphate buffer, 37 °C, pH 6.8, aqueous buffer
[10] = D0 = M0/V0/Cs, V0 = 250 mL, content of a single dose of YZTs

Molecule	Papp at 120 min [1]	solubility at 24 h [3, 7]	solubility at 24 h [3, 8]	solubility at 24 h [3, 9]	solubility at 24 h ([3]; water)	AUC [4]	Cmax [4]	Relative content ([2]; 1.25 ng/mL, 6℃-6h)	Relative content ([2]; 1.25 ng/mL, 20℃-24h)	Relative content ([2]; 1.25 ng/mL, Freeze-thaw thrice)	Relative content ([2]; 5 ng/mL, 6℃-6h)	Relative content ([2]; 5 ng/mL, 20℃-24h)	Relative content ([2]; 5 ng/mL, Freeze-thaw thrice)	Relative content ([2]; 20 ng/mL, 6℃-6h)	Relative content ([2]; 20 ng/mL, 20℃-24h)	Relative content ([2]; 20 ng/mL, Freeze-thaw thrice)	Relative content ([2]; 0.2 ng/mL, 6℃-6h)	Relative content ([2]; 0.2 ng/mL, 20℃-24h)	Relative content ([2]; 0.2 ng/mL, Freeze-thaw thrice)	Relative content ([2]; 0.5 ng/mL, 6℃-6h)	other results
COc1cc2c(cc1OC)[C@H]1[C@@H](C)c3ccc(OC)c(OC)c3CN1CC2 [Corydaline, corydaline]	3.94 ×10⁻⁶ cm/s	> 2380 µg/mL	> 2380 µg/mL	2380 ± 348 µg/mL (≈ 6460 µM)	5.03 ± 0.85 µg/mL (≈ 13.6 µM)	34.3 ng·h/mL	12 ng/mL	98.22%	98.02%	97.95%	93.89%	102.35%	102.28%	107.01%	100.80%	100.73%	–	–	–	–	–
COc1ccc2c(c1OC)CN(C)CCc1cc3c(cc1C(=O)C2)OCO3 [α-allocryptopine]	13.4 ×10⁻⁶ cm/s	48.7 ± 4.08 µg/mL (≈ 132 µM)	45.8 ± 2.56 µg/mL (≈ 124 µM)	44.7 ± 2.17 µg/mL (≈ 121 µM)	2380 ± 521 µg/mL (≈ 6430 µM)	2.04 ng·h/mL	0.5 ng/mL	–	–	–	–	–	–	–	–	–	91.78%	100.07%	100.00%	100.95%	Relative content ([2]; 0.5 ng/mL, 20℃-24h): 101.06%; Relative content ([2]; 0.5 ng/mL, Freeze-thaw thrice): 100.99%; Relative content ([2]; 3.2 ng/mL, 6℃-6h): 107.49%; Relative content ([2]; 3.2 ng/mL, 20℃-24h): 98.70%; Relative content ([2]; 3.2 ng/mL, Freeze-thaw thrice): 98.63%; D0, 0.1 M HCl [3, 10]: 0.5441 and <1; D0, Acetate Buffer [3, 10]: 0.5786 and <1; D0, Phosphate Buffer [3, 10]: 0.5928 and <1
protopine	–	–	–	–	–	–	–	–	–	–	–	–	–	–	–	–	99.33%	96.07%	96.00%	93.89%	In Vitro Caco-2 Cell Permeability (Peff) (Caco-2 cells): 7.49 ± 0.0803 ×10⁻⁶ cm/s; Solubility, 0.1 M HCl (pH 1.2): 4700 ± 384 µg/mL; Solubility, Acetate Buffer (pH 4.5): 5403 ± 378 µg/mL; Solubility, Phosphate Buffer (pH 6.8): 535 ± 17.2 µg/mL; Relative content ([2]; 0.5 ng/mL, 20℃-24h): 100.60%; Relative content ([2]; 0.5 ng/mL, Freeze-thaw thrice): 100.53%; Relative content ([2]; 3.2 ng/mL, 6℃-6h): 103.43%; Relative content ([2]; 3.2 ng/mL, 20℃-24h): 101.63%; Relative content ([2]; 3.2 ng/mL, Freeze-thaw thrice): 101.56%; Observed AUC [6]: 205.15; Observed Cmax [6]: 1.15 ng/mL; Predicted AUC [6]: 218.10; Predicted Cmax [6]: 1.26 ng/mL; UIR parameter A1, Estimate [5]: 0 ng/mL; UIR parameter Ka, Estimate [5]: 1.36 h⁻¹; UIR parameter Tlag, Estimate [5]: 0.44 h; UIR parameter alpha1, Estimate [5]: 1.35 h⁻¹

Continued, in another order:

Papp at 120 min [1]	solubility at 24 h [3, 7]	solubility at 24 h [3, 8]	solubility at 24 h [3, 9]	solubility at 24 h ([3]; water)	AUC [4]	Cmax [4]	Relative content ([2]; 1.25 ng/mL, 6℃-6h)	Relative content ([2]; 1.25 ng/mL, 20℃-24h)	Relative content ([2]; 1.25 ng/mL, Freeze-thaw thrice)	Relative content ([2]; 5 ng/mL, 6℃-6h)	Relative content ([2]; 5 ng/mL, 20℃-24h)	Relative content ([2]; 5 ng/mL, Freeze-thaw thrice)	Relative content ([2]; 20 ng/mL, 6℃-6h)	Relative content ([2]; 20 ng/mL, 20℃-24h)	Relative content ([2]; 20 ng/mL, Freeze-thaw thrice)	Molecule	Relative content ([2]; 0.2 ng/mL, 6℃-6h)	Relative content ([2]; 0.2 ng/mL, 20℃-24h)	Relative content ([2]; 0.2 ng/mL, Freeze-thaw thrice)	Relative content ([2]; 0.5 ng/mL, 6℃-6h)	other results
8.95 ×10⁻⁶ cm/s	2660 ± 56 µg/mL (≈ 7960 µM)	1290 ± 87.4 µg/mL (≈ 3860 µM)	7.63 ± 1.27 µg/mL (≈ 22.8 µM)	35.9 ± 5.85 µg/mL (≈ 107 µM)	54.5 ng·h/mL	29.6 ng/mL	–	–	–	–	–	–	–	–	–	COc1c2ccoc2c(OC[C@@H](O)C(C)(C)O)c2oc(=O)ccc12 [Byakangelicin, byakangelicin]	–	–	–	–	Relative content ([2]; 37.5 ng/mL, 6℃-6h): 90.02%; Relative content ([2]; 37.5 ng/mL, 20℃-24h): 93.00%; Relative content ([2]; 37.5 ng/mL, Freeze-thaw thrice): 92.93%; Relative content ([2]; 150 ng/mL, 6℃-6h): 93.99%; Relative content ([2]; 150 ng/mL, 20℃-24h): 93.39%; Relative content ([2]; 150 ng/mL, Freeze-thaw thrice): 93.32%; Relative content ([2]; 600 ng/mL, 6℃-6h): 88.54%; Relative content ([2]; 600 ng/mL, 20℃-24h): 89.73%; Relative content ([2]; 600 ng/mL, Freeze-thaw thrice): 89.66%
3.76 ×10⁻⁶ cm/s	655 ± 43.3 µg/mL (≈ 1840 µM)	2670 ± 539 µg/mL (≈ 7500 µM)	19.7 ± 1.87 µg/mL (≈ 55.4 µM)	18.9 ± 1.57 µg/mL (≈ 53.1 µM)	59.9 ng·h/mL	16.4 ng/mL	94.31%	100.16%	100.09%	99.79%	102.60%	102.53%	97.35%	100.19%	100.12%	COc1cc2c(cc1OC)[C@@H]1Cc3ccc(OC)c(OC)c3CN1CC2 [Tetrahydropalmatine, tetrahydropalmatine]	–	–	–	–	UIR parameter A1, Estimate ([5]; beagle): 0.04 ng/mL; UIR parameter Ka, Estimate ([5]; beagle): 1.28 h⁻¹; UIR parameter Tlag, Estimate ([5]; beagle): 0.40 h; UIR parameter alpha1, Estimate ([5]; beagle): 1.30 h⁻¹
